Source: the supplement of paper PMC10307832

Tests used:
Assay in all cases: relative viability (nuclei count vs DMSO), 5 days (fraction); higher = more cells survive
[1] = tested on: NCI-H1651
How it was run: (§1)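 Five library-drug doses in √10 steps were combined with a fixed anchor-drug dose, or a single drug was given alone, by pin tool to lung cancer cell lines in 1536-well plates the day after seeding. Nuclei were stained and counted after 5 days. Relative viability is the nuclei count in treated wells over that in vehicle wells, taken as the median of duplicate plates.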

[2] = tested on: RERF-LC-KJ
How it was run: as §1

[3] = tested on: PC-14
How it was run: as §1

[4] = tested on: NCI-H661
How it was run: as §1

[5] = tested on: NCI-H3122
How it was run: as §1

[6] = tested on: NCI-H460
How it was run: as §1

[7] = tested on: NCI-H727
How it was run: as §1

[8] = tested on: NCI-H520
How it was run: as §1

[9] = tested on: SK-MES-1
How it was run: as §1

[10] = tested on: NCI-H522
How it was run: as §1

[11] = tested on: SW 900
How it was run: as §1

[12] = tested on: LCLC-103H
How it was run: as §1

[13] = tested on: NCI-H1355
How it was run: as §1

[14] = tested on: NCI-H2347
How it was run: as §1

[15] = tested on: NCI-H1755
How it was run: as §1

[16] = tested on: NCI-H322M
How it was run: as §1

[17] = tested on: LXF-289
How it was run: as §1

[18] = tested on: NCI-H1915
How it was run: as §1

[19] = tested on: NCI-H441
How it was run: as §1

[20] = tested on: NCI-H596
How it was run: as §1

Compound `O=c1cc(N2CCOCC2)oc2c(-c3cccc4c3sc3ccccc34)cccc12` + O=C(CCCCCCC(=O)Nc1ccccc1)NO [Vorinostat] (partner 1 µM) has a relative viability ([1]; first compound 0.01 µM) of 0.55, a relative viability ([1]; first compound 0.03162 µM) of 0.556 and a relative viability ([1]; first compound 0.1 µM) of 0.528. For the same compound, the relative viability ([1]; first compound 0.3162 µM) was 0.567, the relative viability ([1]; first compound 1 µM) was 0.489 and the relative viability ([2]; first compound 0.01 µM) was 0.76. For the same compound, the relative viability ([2]; first compound 0.03162 µM) was 0.694, the relative viability ([2]; first compound 0.1 µM) was 0.775 and the relative viability ([2]; first compound 0.3162 µM) was 0.64. The relative viability ([2]; first compound 1 µM) was 0.707, the relative viability ([3]; first compound 0.01 µM) was 0.682 and the relative viability ([3]; first compound 0.03162 µM) was 0.75. It also gave a relative viability ([3]; first compound 0.1 µM) of 0.713, a relative viability ([3]; first compound 0.3162 µM) of 0.84 and a relative viability ([3]; first compound 1 µM) of 0.768. It also gave a relative viability ([4]; first compound 0.01 µM) of 0.761, a relative viability ([4]; first compound 0.03162 µM) of 0.793 and a relative viability ([4]; first compound 0.1 µM) of 0.836. It also gave a relative viability ([4]; first compound 0.3162 µM) of 0.79, a relative viability ([4]; first compound 1 µM) of 0.765 and a relative viability ([5]; first compound 0.01 µM) of 0.933. The relative viability ([5]; first compound 0.03162 µM) was 1.02, the relative viability ([5]; first compound 0.1 µM) was 1.04 and the relative viability ([5]; first compound 0.3162 µM) was 0.895. For the same compound, the relative viability ([5]; first compound 1 µM) was 1.02, the relative viability ([6]; first compound 0.01 µM) was 0.68 and the relative viability ([6]; first compound 0.03162 µM) was 0.773. The relative viability ([6]; first compound 0.1 µM) was 0.957, the relative viability ([6]; first compound 0.3162 µM) was 0.655 and the relative viability ([6]; first compound 1 µM) was 0.75. For the same compound, the relative viability ([7]; first compound 0.01 µM) was 1.12, the relative viability ([7]; first compound 0.03162 µM) was 1.31 and the relative viability ([7]; first compound 0.1 µM) was 0.626. The relative viability ([7]; first compound 0.3162 µM) was 1.04, the relative viability ([7]; first compound 1 µM) was 1.19 and the relative viability ([8]; first compound 0.01 µM) was 0.775. It also gave a relative viability ([8]; first compound 0.03162 µM) of 0.755, a relative viability ([8]; first compound 0.1 µM) of 0.689 and a relative viability ([8]; first compound 0.3162 µM) of 0.728. It also gave a relative viability ([8]; first compound 1 µM) of 0.794, a relative viability ([9]; first compound 0.01 µM) of 1.04 and a relative viability ([9]; first compound 0.03162 µM) of 1.06. The relative viability ([9]; first compound 0.1 µM) was 1.04, the relative viability ([9]; first compound 0.3162 µM) was 1.04 and the relative viability ([9]; first compound 1 µM) was 1.09. The relative viability ([10]; first compound 0.01 µM) was 0.986, the relative viability ([10]; first compound 0.03162 µM) was 0.932 and the relative viability ([10]; first compound 0.1 µM) was 0.864. The relative viability ([10]; first compound 0.3162 µM) was 0.873, the relative viability ([10]; first compound 1 µM) was 0.666 and the relative viability ([11]; first compound 0.03162 µM) was 0.508. It also gave a relative viability ([11]; first compound 0.1 µM) of 0.364, a relative viability ([11]; first compound 0.3162 µM) of 0.544 and a relative viability ([11]; first compound 1 µM) of 0.359. It also gave a relative viability ([12]; first compound 0.01 µM) of 0.739, a relative viability ([12]; first compound 0.03162 µM) of 0.824 and a relative viability ([12]; first compound 0.1 µM) of 0.826. The relative viability ([12]; first compound 0.3162 µM) was 0.826, the relative viability ([12]; first compound 1 µM) was 0.857 and the relative viability ([13]; first compound 0.01 µM) was 0.681. The relative viability ([13]; first compound 0.03162 µM) was 0.613, the relative viability ([13]; first compound 0.1 µM) was 0.598 and the relative viability ([13]; first compound 0.3162 µM) was 0.663. It also gave a relative viability ([13]; first compound 1 µM) of 0.598, a relative viability ([14]; first compound 0.01 µM) of 0.622 and a relative viability ([14]; first compound 0.03162 µM) of 0.547. It also gave a relative viability ([14]; first compound 0.1 µM) of 0.534, a relative viability ([14]; first compound 0.3162 µM) of 0.595 and a relative viability ([14]; first compound 1 µM) of 0.635. The relative viability ([15]; first compound 0.01 µM) was 0.828, the relative viability ([15]; first compound 0.03162 µM) was 0.775 and the relative viability ([15]; first compound 0.1 µM) was 0.793. It also gave a relative viability ([15]; first compound 0.3162 µM) of 0.741, a relative viability ([15]; first compound 1 µM) of 0.834 and a relative viability ([16]; first compound 0.01 µM) of 0.826. The relative viability ([16]; first compound 0.03162 µM) was 0.92, the relative viability ([16]; first compound 0.3162 µM) was 0.871 and the relative viability ([16]; first compound 1 µM) was 0.678. The relative viability ([17]; first compound 0.01 µM) was 0.797, the relative viability ([17]; first compound 0.03162 µM) was 0.789 and the relative viability ([17]; first compound 0.1 µM) was 0.693. It also gave a relative viability ([17]; first compound 0.3162 µM) of 0.741, a relative viability ([17]; first compound 1 µM) of 0.827 and a relative viability ([18]; first compound 0.01 µM) of 0.497. The relative viability ([18]; first compound 0.03162 µM) was 0.596, the relative viability ([18]; first compound 0.1 µM) was 0.521 and the relative viability ([18]; first compound 0.3162 µM) was 0.516. It also gave a relative viability ([18]; first compound 1 µM) of 0.544, a relative viability ([19]; first compound 0.01 µM) of 0.731 and a relative viability ([19]; first compound 0.03162 µM) of 0.704. It also gave a relative viability ([19]; first compound 0.1 µM) of 1.09, a relative viability ([19]; first compound 0.3162 µM) of 0.829 and a relative viability ([19]; first compound 1 µM) of 0.724. It also gave a relative viability ([20]; first compound 0.01 µM) of 0.564, a relative viability ([20]; first compound 0.03162 µM) of 0.586 and a relative viability ([20]; first compound 0.1 µM) of 0.581. For the same compound, the relative viability ([20]; first compound 0.3162 µM) was 0.626 and the relative viability ([20]; first compound 1 µM) was 0.573.
